Target: T1, IP receptor (Homo sapiens, UniProt P43119)
T1 construct: expressed in transfected cells; host or cells: CHO cells stably expressing the IP receptor (CHO-IP)
Assay: cAMP accumulation in CHO cells stably expressing the IP receptor (CHO-IP), Perkin Elmer AlphaScreen assay
Assay type: cell-based
Details: agonist activity, 1 hour at room temperature
Experimental: Activity of compounds at the IP receptor (IP receptor) is assessed by measuring cAMP accumulation in CHO cells stably expressing the IP receptor (CHO-IP) using the Perkin Elmer AlphaScreen assay. This technology measures the endogenous production of cAMP, in a non-radioactive luminescence proximity homogenous assay. A biological reaction occurs between streptavidin coated donor beads, biotinylated cAMP and anti-cAMP acceptor beads, bringing the donor and acceptor beads close enough together so that upon excitation a fluorescence signal is produced. On production of endogenous cAMP, competition between the biotinylated cAMP and cellular-derived cAMP causes a reduction in the fluorescent signal. The reduction in signal is proportional to the amount of cAMP being produced, thus it is possible to quantify the amount of cAMP being produced on stimulation with agonist.
Test and reference compounds are prepared at 100× [final] in 100% DMSO, and diluted 1:3 using a Biomek Fx (Beckman Coulter). This is followed by an intermediate dilution to give 5× [final] in assay buffer (HBSS containing 5 mM HEPES, 0.1% (w/v) BSA). 5 μL of 5× [final] test compounds, reference compounds and buffer/DMSO control are then transferred to a 384-well white OptiPlate, containing 20 μL CHO-IP cell suspension (15,000 cells/well, prepared from frozen), and plate is incubated at room temperature for 1 hour. A cAMP standard curve is constructed for each experiment (concentration range of 10000 nM to 0.001 nM, in assay buffer) and 25 μL of each concentration added to the last two columns of the assay plate. The incubation is terminated by the addition of lysis buffer (dH2O; 0.3% (v v^−1) Tween-20) containing 20 units mL^−1 streptavidin coated donor beads and biotinylated cAMP (pre-incubated for 30 minutes) and 20 units mL^−1 anti-cAMP acceptor beads, which are added to the lysis buffer just before addition to the assay plate. The assay plate is then incubated at room temperature in the dark, for 60 minutes with gentle shaking, and read on the Envision plate reader (Perkin Elmer).
The raw data of the reference compounds, test compounds and controls are converted into cAMP concentrations, using the cAMP standard curve, in Graph Pad Prism (Graph Pad Software Inc). EC50 as well as maximal values of the agonist curves are determined using a 4-parameter logistic equation. The % maximum response values of all test compounds are determined using the top of the treprostinil concentration-response curve.

T1 sequence (P43119 whole entry): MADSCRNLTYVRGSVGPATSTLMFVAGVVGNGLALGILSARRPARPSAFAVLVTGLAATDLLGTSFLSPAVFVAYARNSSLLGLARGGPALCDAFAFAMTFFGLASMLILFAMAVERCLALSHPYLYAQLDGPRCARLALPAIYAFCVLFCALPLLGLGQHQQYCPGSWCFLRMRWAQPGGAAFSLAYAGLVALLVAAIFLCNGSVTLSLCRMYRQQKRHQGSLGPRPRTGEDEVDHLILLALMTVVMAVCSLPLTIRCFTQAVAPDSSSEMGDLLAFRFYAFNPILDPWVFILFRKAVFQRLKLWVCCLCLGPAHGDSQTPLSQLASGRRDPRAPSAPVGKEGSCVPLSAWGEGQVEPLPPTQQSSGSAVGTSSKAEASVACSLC

For `Cc1ccc(-c2nc3c(nc2-c2ccc(C)cc2)N(CCCCCCC(=O)NS(=O)(=O)c2ccccc2)CCC3)cc1` [Example 12.2, 7-(2,3-Di-p-tolyl-7,8-dihydropyrido[2,3-b]pyrazin-5(6H)-yl)-N-(phenylsulfonyl) heptanamide], the EC50 was 6.4 nM.

For `COC1(C)CCN(CCCCCCC(=O)O)c2nc(-c3ccc(C)cc3)c(-c3ccc(C)cc3)nc21` (racemic) [Example 15, rac-7-(8-Methoxy-8-methyl-2,3-di-p-tolyl-7,8-dihydropyrido[2,3-b]pyrazin-5(6H)-yl)heptanoic acid], the EC50 was 0.3 nM.

`CO[C@@H]1CCN(CCCCCCC(=O)O)c2nc(-c3ccc(C)cc3)c(-c3ccc(C)cc3)nc21` (single isomer, unassigned) [Example 3.2, (R)-7-(8-methoxy-2,3-di-p-tolyl-7,8-dihydropyrido[2,3-b]pyrazin-5(6H)-yl)heptanoic acid or (S)-7-(8-methoxy-2,3-di-p-tolyl-7,8-dihydropyrido[2,3-b]pyrazin-5(6H)-yl)heptanoic acid] showed an EC50 of 13.6 nM.

In the case of `Cc1ccc(-c2nc3c(nc2-c2ccc(C)cc2)N(CCCCCCCC(=O)O)C(=O)CC3)cc1` [Example 1.2, 8-(6-Oxo-2,3-di-p-tolyl-7,8-dihydropyrido[2,3-b]pyrazin-5(6H)-yl)octanoic acid], the EC50 is reported as 1.9 nM.

For `Cc1ccc(-c2nc3c(nc2-c2ccc(C)cc2)N(CCCCCCC(=O)Nc2ccccc2)CCC3)cc1` [Example 12.5, 7-(2,3-Di-p-tolyl-7,8-dihydropyrido[2,3-b]pyrazin-5(6H)-yl)-N-phenylheptanamide], the EC50 was 40.7 nM.

For `Cc1ccc(-c2nc3c(nc2-c2ccc(C)cc2)N(CCCCCCC(=O)NC(C)C)CCC3)cc1` [Example 12.3, 7-(2,3-Di-p-tolyl-7,8-dihydropyrido[2,3-b]pyrazin-5(6H)-yl)-N-isopropylheptanamide], the EC50 was 45 nM.

With `Cc1ccc(-c2nc3c(nc2-c2ccc(C)cc2)N(CCCC[C@@H](O)CC(=O)O)CCC3)cc1` (single isomer, unassigned) [Example 17a, (R)-7-(2,3-Di-p-tolyl-7,8-dihydropyrido[2,3-b]pyrazin-5(6H)-yl)-3-hydroxyheptanoic acid or (S)-7-(2,3-Di-p-tolyl-7,8-dihydropyrido[2,3-b]pyrazin-5(6H)-yl)-3-hydroxyheptanoic acid] the EC50 was 3.6 nM.

`Cc1ccc(-c2nc3c(nc2-c2ccc(C)cc2)N(CCCCCCC(=O)O)C(=O)C(C(C)(C)O)C3)cc1` (single isomer, unassigned) [Example 1.1, rac-7-(7-(2-Hydroxypropan-2-yl)-6-oxo-2,3-di-p-tolyl-7,8-dihydropyrido[2,3-b]pyrazin-5(6H)-yl)heptanoic acid] was tested, and the EC50 was 0.3 nM.

With `Cc1ccc(-c2nc3c(nc2-c2ccccc2)CC(C)CN3CCCCCCC(=O)O)cc1` (stereo not shown) [Example 2.2, 7-(7-Methyl-2-phenyl-3-(p-tolyl)-7,8-dihydropyrido[2,3-b]pyrazin-5(6H)-yl)heptanoic acid] the EC50 was 0.1 nM.

For `CO[C@@H]1CCN(CCCCCCC(=O)O)c2nc(-c3ccc(C)cc3)c(-c3ccc(C)cc3)nc21` (single isomer, unassigned) [Example 3.3, (R)-7-(8-methoxy-2,3-di-p-tolyl-7,8-dihydropyrido[2,3-b]pyrazin-5(6H)-yl)heptanoic acid or (S)-7-(8-methoxy-2,3-di-p-tolyl-7,8-dihydropyrido[2,3-b]pyrazin-5(6H)-yl)heptanoic acid], the EC50 was 2.3 nM.

`Cc1ccc(-c2nc3c(nc2-c2ccc(C)cc2)N(CCCCCC(=O)NO)CCC3)cc1` [Example 12.10, 6-(2,3-Di-p-tolyl-7,8-dihydropyrido[2,3-b]pyrazin-5(6H)-yl)-N-hydroxyhexanamide] showed an EC50 of 55.6 nM.

For `Cc1ccc(-c2nc3c(nc2-c2ccc(C)cc2)N(CCCCC(O)CC(=O)O)CCC3)cc1` (racemic) [Example 17, rac-7-(2,3-Di-p-tolyl-7,8-dihydropyrido[2,3-b]pyrazin-5(6H)-yl)-3-hydroxyheptanoic acid], the EC50 was 1.8 nM.

Compound `CNC(=O)CCCCCCN1CCCc2nc(-c3ccc(C)cc3)c(-c3ccc(C)cc3)nc21` [Example 12.4, 7-(2,3-Di-p-tolyl-7,8-dihydropyrido[2,3-b]pyrazin-5(6H)-yl)-N-methylheptanamide] has an EC50 of 12.1 nM.

`Cc1ccc(-c2nc3c(nc2-c2ccccc2F)CCCN3CCCCCCC(=O)O)cc1` [Example 2.7, 7-(2-(2-Fluorophenyl)-3-p-tolyl-7,8-dihydropyrido[2,3-b]pyrazin-5(6H)-yl)heptanoic acid] was tested, and the EC50 was 0.3 nM.

With `Cc1ccc(-c2nc3c(nc2-c2ccc(C)cc2)N(CCCCCC(=O)O)CCC3)cc1` [Example 10, 6-(2,3-Di-p-tolyl-7,8-dihydropyrido[2,3-b]pyrazin-5(6H)-yl)hexanoic acid] the EC50 was 0.3 nM.

`CONC(=O)CCCCCCN1CCCc2nc(-c3ccc(C)cc3)c(-c3ccc(C)cc3)nc21` [Example 12.6, 7-(2,3-Di-p-tolyl-7,8-dihydropyrido[2,3-b]pyrazin-5(6H)-yl)-N-methoxyheptanamide] was tested, and the EC50 was 4.7 nM.

Compound `O=C(O)CCCCCCN1CCCc2nc(-c3ccc(F)cc3F)c(-c3ccc(F)cc3F)nc21` [Example 4, 7-(2,3-Bis(2,4-difluorophenyl)-7,8-dihydropyrido[2,3-b]pyrazin-5(6H)-yl)heptanoic acid] has an EC50 of 0.7 nM.

Compound `Cc1ccc(-c2nc3c(nc2-c2ccc(C)cc2)N(CCCCCCC(=O)N(C)C)CCC3)cc1` [Example 12.7, 7-(2,3-Di-p-tolyl-7,8-dihydropyrido[2,3-b]pyrazin-5(6H)-yl)-N,N-dimethylheptanamide] has an EC50 of 75.9 nM.

`Cc1ccc(-c2nc3c(nc2-c2ccc(C)cc2)N(CCCCCCC(=O)O)C(=O)C(O)C3)cc1` (single isomer, unassigned) [11(ii), (R)-7-(7-hydroxy-6-oxo-2,3-di-p-tolyl-7,8-dihydropyrido[2,3-b]pyrazin-5(6H)-yl) heptanoic acid or (S)-7-(7-hydroxy-6-oxo-2,3-di-p-tolyl-7,8-dihydropyrido[2,3-b]pyrazin-5(6H)-yl) heptanoic acid] gave an EC50 of 0.5 nM.

Compound `Cc1ccc(-c2nc3c(nc2-c2ccc(C)nc2)N(CCCCCCC(=O)O)CCC3)cn1` [Example 5, 7-(2,3-Bis(6-methylpyridin-3-yl)-7,8-dihydropyrido[2,3-b]pyrazin-5(6H)-yl)heptanoic acid] has an EC50 of 11.7 nM.

`Cc1ccc(-c2nc3c(nc2-c2ccc(Cl)cc2)CCC(=O)N3CCCCCCC(=O)O)cc1` [Example 7.2, 7-(2-(4-Chlorophenyl)-6-oxo-3-p-tolyl-7,8-dihydropyrido[2,3-b]pyrazin-5(6H)-yl)heptanoic acid] showed an EC50 of 1.2 nM.

With `CCC1CCc2nc(-c3ccc(C)cc3)c(-c3ccc(C)cc3)nc2N1CCCCCCC(=O)O` (single isomer, unassigned) [2.3(i), (R)-7-(6-Ethyl-2,3-di-p-tolyl-7,8-dihydropyrido[2,3-b]pyrazin-5(6H)-yl)heptanoic acid or (S)-7-(6-Ethyl-2,3-di-p-tolyl-7,8-dihydropyrido[2,3-b]pyrazin-5(6H)-yl)heptanoic acid] the EC50 was 4.8 nM.

With `Cc1ccc(-c2nc3c(nc2-c2ccc(C)cc2)N(CCCCCCC(=O)NS(C)(=O)=O)CCC3)cc1` [Example 13.4, 7-(2,3-Di-p-tolyl-7,8-dihydropyrido[2,3-b]pyrazin-5(6H)-yl)-N-(methylsulfonyl) heptanamide] the EC50 was 0.7 nM.

In the case of `Cc1ccc(-c2nc3c(nc2-c2ccc(C)cc2)N(CCCCCCC(=O)NS(=O)(=O)C(C)C)CCC3)cc1` [Example 13.5, 7-(2,3-Di-p-tolyl-7,8-dihydropyrido[2,3-b]pyrazin-5(6H)-yl)-N-(isopropylsulfonyl) heptanamide], the EC50 is reported as 5 nM.

For `Cc1ccc(-c2nc3c(nc2-c2ccc(Cl)cc2)N(CCCCCCC(=O)O)C(=O)CC3)cc1` [Example 7.3, 7-(3-(4-Chlorophenyl)-6-oxo-2-p-tolyl-7,8-dihydropyrido[2,3-b]pyrazin-5(6H)-yl)heptanoic acid], the EC50 was 0.3 nM.

`Cc1ccc(-c2nc3c(nc2-c2cccc(F)c2)CCCN3CCCCCCC(=O)O)cc1` [Example 2.9, 7-(2-(3-Fluorophenyl)-3-p-tolyl-7,8-dihydropyrido[2,3-b]pyrazin-5(6H)-yl)heptanoic acid] was tested, and the EC50 was 0.1 nM.

`Cc1ccc(-c2nc3c(nc2-c2ccc(C)cc2)N(CCCCCCCCC(=O)O)C(=O)CC3)cc1` [Example 8, 9-(6-Oxo-2,3-di-p-tolyl-7,8-dihydropyrido[2,3-b]pyrazin-5(6H)-yl)nonanoic acid] gave an EC50 of 7 nM.

In the case of `O=C(O)CCCCCCN1C(=O)CCc2nc(-c3ccc(Cl)cc3)c(-c3ccc(Cl)cc3)nc21` [Example 7.1, 7-(2,3-Bis(4-chlorophenyl)-6-oxo-7,8-dihydropyrido[2,3-b]pyrazin-5(6H)-yl)heptanoic acid], the EC50 is reported as 2.3 nM.

Source: patent publication US9115129B2, “Substituted pyrido[2,3-B]pyrazines as IP receptor agonists” (Novartis AG, priority 2012, dated 2015)
